Test results reported in patent publication US20240208992A1, “MACROCYCLES AS CFTR MODULATORS” (Idorsia Pharmaceuticals Ltd, priority 2021, published 2024).

Biological target: human F508del-CFTR (Homo sapiens, UniProt P13569, DEL508-508)
Assay: F508del-CFTR cell surface expression (corrector activity), DiscoveRx ß-galactosidase complementation chemiluminescence assay in recombinant U2OS cell line;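 note: U2OS cells co-expressing ProLink-tagged F508del-CFTR and a membrane-anchored enzyme acceptor, where more surface CFTR restores β-galactosidase activity measured by chemiluminescence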
Details: for EC50: EC50, F508del-CFTR cell surface expression; for Emax: U2OS
[1] = U2OS cell line, 16h compound incubation, geomean values
[2] = in relation to the Emax of the corrector lumacaftor (=100%), U2OS cell line, 16h compound incubation, arithmetic mean values
[3] = U2OS cells, 16h compound incubation, geomean values
[4] = in relation to Emax of corrector lumacaftor (=100%), arithmetic mean values

human F508del-CFTR, sequence (P13569 with tags, fused parts or gaps DEL508-508): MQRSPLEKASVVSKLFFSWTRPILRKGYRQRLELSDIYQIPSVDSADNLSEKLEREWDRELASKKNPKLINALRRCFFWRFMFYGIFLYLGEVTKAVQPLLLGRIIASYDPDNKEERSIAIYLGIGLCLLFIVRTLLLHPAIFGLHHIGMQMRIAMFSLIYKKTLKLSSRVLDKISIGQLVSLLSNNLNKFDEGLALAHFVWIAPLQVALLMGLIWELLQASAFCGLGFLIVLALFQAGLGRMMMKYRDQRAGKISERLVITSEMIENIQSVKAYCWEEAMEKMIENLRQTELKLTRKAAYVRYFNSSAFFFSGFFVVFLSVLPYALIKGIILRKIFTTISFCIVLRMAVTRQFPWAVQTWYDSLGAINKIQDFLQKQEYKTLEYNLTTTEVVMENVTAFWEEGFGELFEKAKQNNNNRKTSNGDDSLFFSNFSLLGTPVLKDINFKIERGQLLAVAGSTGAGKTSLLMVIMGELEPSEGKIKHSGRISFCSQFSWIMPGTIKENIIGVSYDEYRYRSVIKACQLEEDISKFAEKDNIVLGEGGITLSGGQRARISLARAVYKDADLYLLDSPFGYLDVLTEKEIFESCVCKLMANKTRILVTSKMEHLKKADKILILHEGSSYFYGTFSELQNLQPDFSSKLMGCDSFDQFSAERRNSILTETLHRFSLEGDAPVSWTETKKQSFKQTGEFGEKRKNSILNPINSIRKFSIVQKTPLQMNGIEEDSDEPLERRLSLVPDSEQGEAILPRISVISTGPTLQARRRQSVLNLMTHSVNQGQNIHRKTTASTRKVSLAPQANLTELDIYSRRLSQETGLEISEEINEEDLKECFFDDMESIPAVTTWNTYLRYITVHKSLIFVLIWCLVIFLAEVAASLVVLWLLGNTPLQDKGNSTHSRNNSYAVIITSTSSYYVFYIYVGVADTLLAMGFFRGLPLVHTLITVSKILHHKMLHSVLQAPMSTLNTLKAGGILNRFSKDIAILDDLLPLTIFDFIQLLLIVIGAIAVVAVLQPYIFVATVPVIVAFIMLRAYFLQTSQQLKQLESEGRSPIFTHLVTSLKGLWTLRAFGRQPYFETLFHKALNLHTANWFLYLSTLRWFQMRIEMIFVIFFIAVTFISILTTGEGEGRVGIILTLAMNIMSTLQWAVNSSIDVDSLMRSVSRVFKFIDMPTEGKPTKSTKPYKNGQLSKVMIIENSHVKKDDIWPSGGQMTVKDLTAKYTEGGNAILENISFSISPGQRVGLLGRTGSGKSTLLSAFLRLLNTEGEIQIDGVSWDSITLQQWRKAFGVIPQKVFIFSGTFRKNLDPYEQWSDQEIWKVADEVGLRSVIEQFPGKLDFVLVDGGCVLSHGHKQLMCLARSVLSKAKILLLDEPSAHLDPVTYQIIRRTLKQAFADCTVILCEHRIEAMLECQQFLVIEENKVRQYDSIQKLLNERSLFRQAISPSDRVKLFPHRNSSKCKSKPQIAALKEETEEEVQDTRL

EC50 [1] [µM] | Emax [2] [%] | SMILES | EC50 [3] [µM] | Emax [4] [%] | further results
0.317 | 138 | COc1ccc(CCNC(=O)[C@@H]2CC(=O)N(C)[C@@H](CC(C)C)C(=O)N(CCC3CCCCC3)CC(=O)N[C@H](Cc3ccccc3)COc3cccc(OC)c3C(=O)N2)nc1 [Example 207, (3R,9S,13S)-3-benzyl-7-(2-cyclohexylethyl)-9-isobutyl-16-methoxy-N-(2-(5-methoxypyridin-2-yl)ethyl)-10-methyl-5,8,11,15-tetraoxo-2,3,4,5,6,7,8,9,10,11,12,13,14,15-tetradecahydrobenzo[p][1]oxa[4,7,10,14]tetraazacycloheptadecine-13-carboxamide] | – | – | –
– | – | COc1nc(C)cc2c1C(=O)N[C@H](C(=O)NCCc1cc(C)no1)CC(=O)N(C)[C@@H](CC(C)C)C(=O)N1CCC3(CC3)C[C@@H]1C(=O)N[C@H](Cc1ccccc1)CO2 [Example 683, (7′S,11′S,17a′R,20′R)-20′-benzyl-11′-isobutyl-4′-methoxy-2′,10′-dimethyl-N-(2-(3-methylisoxazol-5-yl)ethyl)-5′,9′,12′,18′-tetraoxo-5′,6′,7′,8′,9′,10′,11′,12′,14′,15′,17′,17a′,18′,19′,20′,21′-hexadecahydrospiro[cyclopropane-1,16′-dipyrido[2,1-f:3′,4′-p][1]oxa[4,7,10,14]tetraazacycloheptadecine]-7′-carboxamide] | 0.362 | 262 | –
0.463 | 111 | CC(C)C[C@H]1C(=O)N2CCCC[C@@H]2C(=O)N[C@H](Cc2ccccc2)COc2ccc3ncn(C)c3c2C(=O)N[C@H](C(=O)NCCc2ccc(-n3nccn3)cc2)CC(=O)N1C [Example 31, (8S,12S,18aR,21R)-N-(4-(2H-1,2,3-triazol-2-yl)phenethyl)-21-benzyl-12-isobutyl-5,11-dimethyl-6,10,13,19-tetraoxo-6,7,8,9,10,11,12,13,16,17,18,18a,19,20,21,22-hexadecahydro-5H,15H-imidazo[4′,5′:5,6]benzo[1,2-p]pyrido[2,1-f][1]oxa[4,7,10,14]tetraazacycloheptadecine-8-carboxamide] | – | – | –
– | – | COc1cc(CCNC(=O)[C@@H]2CC(=O)N(C)[C@@H](CC(C)C)C(=O)N(C)[C@H](CCOc3cnc(C)cn3)C(=O)N[C@H](Cc3ccccc3)COc3cc(C)nc(OC)c3C(=O)N2)on1 [Example 977, (3R,6R,9S,13S)-3-benzyl-9-isobutyl-16-methoxy-N-(2-(3-methoxyisoxazol-5-yl)ethyl)-7,10,18-trimethyl-6-(2-((5-methylpyrazin-2-yl)oxy)ethyl)-5,8,11,15-tetraoxo-2,3,4,5,6,7,8,9,10,11,12,13,14,15-tetradecahydropyrido[3,4-p][1]oxa[4,7,10,14]tetraazacycloheptadecine-13-carboxamide] | – | – | EC50 (U2OS cells, 16h compound incubation, geomean of several measurements): 0.281 µM; Emax (in relation to the Emax of the corrector lumacaftor (=100%), U2OS cells, 16h compound incubation, arithmetic mean): 410%
– | – | COc1cccc(CCNC(=O)[C@@H]2CC(=O)N(C)[C@@H](CC(C)C)C(=O)N(C)[C@H](C)C(=O)N[C@H](Cc3ccccc3)COc3ccnc(OC)c3C(=O)N2)c1 [Example 768, (3R,6R,9S,13S)-3-benzyl-9-isobutyl-16-methoxy-N-(3-methoxyphenethyl)-6,7,10-trimethyl-5,8,11,15-tetraoxo-2,3,4,5,6,7,8,9,10,11,12,13,14,15-tetradecahydropyrido[3,4-p][1]oxa[4,7,10,14]tetraazacycloheptadecine-13-carboxamide] | 0.497 | 292 | –

SMILES | EC50 [1] [µM] | Emax [2] [%] | EC50 [3] [µM] | Emax [4] [%] | further results
COc1cccc(CCNC(=O)[C@@H]2CC(=O)N(C)[C@@H](CC(C)C)C(=O)N(CC[C@H]3CCCCO3)CC(=O)N[C@H](Cc3ccccc3)COc3ccc4ccccc4c3C(=O)N2)c1 (racemic) [Example 297, (3RS,7S,13R)-13-benzyl-7-isobutyl-N-(3-methoxyphenethyl)-6-methyl-1,5,8,11-tetraoxo-9-(2-((SR)-tetrahydro-2H-pyran-2-yl)ethyl)-1,2,3,4,5,6,7,8,9,10,11,12,13,14-tetradecahydronaphtho[1,2-p][1]oxa[4,7,10,14]tetraazacycloheptadecine-3-carboxamide] | 0.193 | 225 | – | – | –
